Experimental findings from the supplement of paper PMC10307832 are described below.

What all share (test): relative viability (nuclei count vs DMSO), 5 days (fraction); higher = more cells survive
Compound in test [1]: C1=CC2=C(C=C(C(=C2N=C1)O)N=NC3=CC4=C(C=C3)C=C(C=C4)S(=O)(=O)O)S(=O)(=O)O + CC(=O)Nc1cccc(-n2c(=O)n(C3CC3)c(=O)c3c(Nc4ccc(I)cc4F)n(C)c(=O)c(C)c32)c1 [Trametinib] (partner 0.02 µM)
An outline of the steps: (§1)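 Cells from lung cancer lines were seeded into 1536-well plates and, one day later, dosed by pin tool. Treatments were either a single drug or a fixed dose of an anchor drug with five library-drug doses (not always all listed) in √10 steps. After 5 days, nuclei were stained in a one-step fixation (final 0.05% Triton X-100, 1% formaldehyde, 1 ug/ml Hoechst) and counted on 4× images, and relative viability is the treated-to-vehicle nuclei ratio, as the median of duplicate plates.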

Compound in test [2]: C1=CC2=C(C=C(C(=C2N=C1)O)N=NC3=CC4=C(C=C3)C=C(C=C4)S(=O)(=O)O)S(=O)(=O)O + C[C@]1(O)C[C@@H](c2nc(-c3ccc4ccc(-c5ccccc5)nc4c3)c3c(N)nccn32)C1 [Linsitinib] (partner 1 µM)
An outline of the steps: as §1

Compound in test [3]: C1=CC2=C(C=C(C(=C2N=C1)O)N=NC3=CC4=C(C=C3)C=C(C=C4)S(=O)(=O)O)S(=O)(=O)O + CC(=O)c1c(C)c2cnc(Nc3ccc(N4CCNCC4)cn3)nc2n(C2CCCC2)c1=O [Palbociclib] (partner 0.5 µM)
An outline of the steps: as §1

Compound in test [4]: C1=CC2=C(C=C(C(=C2N=C1)O)N=NC3=CC4=C(C=C3)C=C(C=C4)S(=O)(=O)O)S(=O)(=O)O + CC1(C)CCC(c2ccc(Cl)cc2)=C(CN2CCN(c3ccc(C(=O)NS(=O)(=O)c4ccc(N[C@H](CCN5CCOCC5)CSc5ccccc5)c(S(=O)(=O)C(F)(F)F)c4)cc3)CC2)C1 [Navitoclax] (partner 0.5 µM)
An outline of the steps:
as §1

As for 201T, the relative viability was 0.721 in test [1] (first compound 0.08 µM); 0.731 in test [1] (first compound 0.253 µM); 0.713 in test [1] (first compound 0.8 µM); 0.709 in test [1] (first compound 2.53 µM); 0.693 in test [1] (first compound 8 µM); 1.05 in test [2] (first compound 0.08 µM). The relative viability turned out to be 1.01 in test [2] (first compound 0.253 µM); 1 in test [2] (first compound 0.8 µM); 1.05 in test [2] (first compound 2.53 µM); 1.07 in test [2] (first compound 8 µM); 0.385 in test [3] (first compound 0.08 µM); 0.366 in test [3] (first compound 0.253 µM). Also, the relative viability in test [3] (first compound 0.8 µM) came to 0.366; in test [3] (first compound 2.53 µM), 0.366; in test [3] (first compound 8 µM) it was 0.35; in test [4] (first compound 0.08 µM), 1.24; in test [4] (first compound 0.253 µM), 1.21; in test [4] (first compound 0.8 µM) it was 1.22. Further, the relative viability in test [4] (first compound 2.53 µM) was determined as 1.27; in test [4] (first compound 8 µM), 1.16.
As for A549, the relative viability in test [2] (first compound 0.08 µM) worked out at 0.7; in test [2] (first compound 0.253 µM) it was 0.515; in test [2] (first compound 0.8 µM), 0.617; in test [2] (first compound 2.53 µM), 0.645; in test [2] (first compound 8 µM), 0.576; in test [4] (first compound 0.08 µM), 1.18. Moreover, the relative viability in test [4] (first compound 0.253 µM) worked out at 1.16; in test [4] (first compound 0.8 µM) it was 1.27; in test [4] (first compound 2.53 µM), 1.17; in test [4] (first compound 8 µM) it was 0.934.
With A-427, the relative viability in test [1] (first compound 0.08 µM) is 0.721; in test [1] (first compound 0.253 µM) it was 0.719; in test [1] (first compound 0.8 µM) it was 0.718; in test [1] (first compound 2.53 µM), 0.781; in test [1] (first compound 8 µM), 0.732; in test [2] (first compound 0.08 µM) it was 1.18. In addition, the relative viability in test [2] (first compound 0.253 µM) amounted to 1.07; in test [2] (first compound 0.8 µM), 1.08; in test [2] (first compound 2.53 µM), 1.07; in test [2] (first compound 8 µM) it was 1.11; in test [3] (first compound 0.08 µM), 0.525; in test [3] (first compound 0.253 µM), 0.547. Besides, the relative viability in test [3] (first compound 0.8 µM) was determined as 0.512; in test [3] (first compound 2.53 µM), 0.541; in test [3] (first compound 8 µM), 0.482; in test [4] (first compound 0.08 µM) it was 1.06; in test [4] (first compound 0.253 µM), 1.04; in test [4] (first compound 0.8 µM), 0.83. The relative viability was 1.12 in test [4] (first compound 2.53 µM) and 1.02 in test [4] (first compound 8 µM).
In the case of ABC-1, the relative viability in test [2] (first compound 0.08 µM) is 0.8; in test [2] (first compound 0.253 µM), 0.632; in test [2] (first compound 0.8 µM) it was 0.86; in test [2] (first compound 2.53 µM), 0.688; in test [2] (first compound 8 µM), 0.738; in test [3] (first compound 0.08 µM), 0.756. Besides, the relative viability in test [3] (first compound 0.253 µM) was 0.647; in test [3] (first compound 0.8 µM), 0.659; in test [3] (first compound 2.53 µM), 0.91; in test [3] (first compound 8 µM), 0.761.
Regarding BEN, the relative viability was 1.1 in test [1] (first compound 0.08 µM); 1.1 in test [1] (first compound 0.253 µM); 0.948 in test [1] (first compound 0.8 µM); 1.07 in test [1] (first compound 2.53 µM); 1.05 in test [1] (first compound 8 µM); 1.11 in test [2] (first compound 0.08 µM). Besides, the relative viability in test [2] (first compound 0.253 µM) turned out to be 0.887; in test [2] (first compound 0.8 µM) it was 0.799; in test [2] (first compound 2.53 µM), 0.94; in test [2] (first compound 8 µM), 0.827; in test [3] (first compound 0.08 µM), 0.499; in test [3] (first compound 0.253 µM), 0.426. For the same cell line, the relative viability was 0.489 in test [3] (first compound 0.8 µM); 0.458 in test [3] (first compound 2.53 µM); 0.448 in test [3] (first compound 8 µM); 0.0579 in test [4] (first compound 0.08 µM); 0.0527 in test [4] (first compound 0.253 µM); 0.0545 in test [4] (first compound 0.8 µM). The relative viability in test [4] (first compound 2.53 µM) is 0.0678; in test [4] (first compound 8 µM) it was 0.0519.
On to CAL-12T, for which the relative viability is 0.369 in test [1] (first compound 0.08 µM); 0.332 in test [1] (first compound 0.253 µM); 0.318 in test [1] (first compound 0.8 µM); 0.332 in test [1] (first compound 2.53 µM); 0.28 in test [1] (first compound 8 µM); 0.938 in test [2] (first compound 0.08 µM). Further, the relative viability in test [2] (first compound 0.253 µM) amounted to 0.753; in test [2] (first compound 0.8 µM), 0.751; in test [2] (first compound 2.53 µM), 0.773; in test [2] (first compound 8 µM), 0.889; in test [3] (first compound 0.08 µM) it was 0.471; in test [3] (first compound 0.253 µM) it was 0.352. In addition, the relative viability in test [3] (first compound 0.8 µM) was found to be 0.415; in test [3] (first compound 2.53 µM) it was 0.481; in test [3] (first compound 8 µM) it was 0.351; in test [4] (first compound 0.08 µM), 1.2; in test [4] (first compound 0.253 µM), 1.45; in test [4] (first compound 0.8 µM), 1.14. Besides, the values for the relative viability in test [4] (first compound 2.53 µM) and in test [4] (first compound 8 µM) were 1.5 and 1.35, respectively.
For COR-L23, the relative viability was 0.669 in test [1] (first compound 0.08 µM); 0.604 in test [1] (first compound 0.253 µM); 0.609 in test [1] (first compound 0.8 µM); 0.556 in test [1] (first compound 2.53 µM); 0.611 in test [1] (first compound 8 µM); 1.01 in test [2] (first compound 0.08 µM). The relative viability in test [2] (first compound 0.253 µM) is 0.927; in test [2] (first compound 0.8 µM), 0.925; in test [2] (first compound 2.53 µM), 0.87; in test [2] (first compound 8 µM), 0.753; in test [3] (first compound 0.08 µM), 0.326; in test [3] (first compound 0.253 µM), 0.346. Besides, the relative viability in test [3] (first compound 0.8 µM) came to 0.274; in test [3] (first compound 2.53 µM), 0.299; in test [3] (first compound 8 µM), 0.39; in test [4] (first compound 0.08 µM) it was 1; in test [4] (first compound 0.253 µM), 0.969; in test [4] (first compound 0.8 µM), 1.06. Also, the relative viability in test [4] (first compound 2.53 µM) stood at 1.06; in test [4] (first compound 8 µM) it was 0.612.
Regarding COR-L 105, the relative viability in test [1] (first compound 0.08 µM) is 0.514; in test [1] (first compound 0.253 µM) it was 0.437; in test [1] (first compound 0.8 µM), 0.469; in test [1] (first compound 2.53 µM), 0.48; in test [1] (first compound 8 µM) it was 0.476; in test [2] (first compound 0.08 µM) it was 0.931. Further, the relative viability in test [2] (first compound 0.253 µM) amounted to 0.939; in test [2] (first compound 0.8 µM), 1.04; in test [2] (first compound 2.53 µM) it was 0.985; in test [2] (first compound 8 µM), 1.01; in test [3] (first compound 0.08 µM) it was 0.391; in test [3] (first compound 0.253 µM), 0.433. In addition, the relative viability was found to be 0.449 in test [3] (first compound 0.8 µM); 0.426 in test [3] (first compound 2.53 µM); 0.384 in test [3] (first compound 8 µM); 0.905 in test [4] (first compound 0.08 µM); 0.7 in test [4] (first compound 0.253 µM); 0.779 in test [4] (first compound 0.8 µM). In addition, the relative viability in test [4] (first compound 2.53 µM) is 0.75; in test [4] (first compound 8 µM) it was 0.843.
Turning to Calu-6, the relative viability in test [2] (first compound 0.08 µM) worked out at 1.08; in test [2] (first compound 0.253 µM) it was 0.976; in test [2] (first compound 0.8 µM), 0.911; in test [2] (first compound 2.53 µM) it was 0.926; in test [2] (first compound 8 µM), 0.969; in test [4] (first compound 0.08 µM), 0.848. Moreover, the relative viability in test [4] (first compound 0.253 µM) turned out to be 0.916; in test [4] (first compound 0.8 µM), 0.769; in test [4] (first compound 2.53 µM), 0.952; in test [4] (first compound 8 µM), 0.802.
